According to ChEMBL document CHEMBL1201862, “PubChem BioAssay data set” (2004):
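Dose response: 5 concentrations. Exposure: 48 h. Format: 96-well plates. Endpoint: linear interpolation; highest concentration if not reached. GI50 marks 50% less growth.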 The source made the active and inactive calls. Cut-off read from the data, not from the text of the source: active = GI50 up to about 1.1 µM and inactive = higher.

What was measured:
Test in all cases: growth of human tumour cells (NCI), 48 h
CAKI-1 = test system: CAKI-1
786-0 = test system: 786-0
A498 = test system: A498
EKVX = test system: EKVX
UO-31 = test system: UO-31
SK-MEL-5 = test system: SK-MEL-5
SNB-19 = test system: SNB-19
SF-295 = test system: SF-295
DMS-273 = test system: DMS-273
UACC-62 = test system: UACC-62
NCI-H522 = test system: NCI-H522
OVCAR-4 = test system: OVCAR-4
RXF 393 = test system: RXF 393
COLO 205 = test system: COLO 205
ACHN = test system: ACHN
HCC 2998 = test system: HCC 2998
DMS-114 = test system: DMS-114
HOP-62 = test system: HOP-62

| Structure (SMILES) | GI50 (CAKI-1) | GI50 (786-0) | GI50 (A498) | GI50 (EKVX) | GI50 (UO-31) | GI50 (SK-MEL-5) | GI50 (SNB-19) | GI50 (SF-295) | GI50 (DMS-273) | GI50 (UACC-62) | GI50 (NCI-H522) | GI50 (OVCAR-4) | GI50 (RXF 393) | GI50 (COLO 205) | GI50 (ACHN) | GI50 (HCC 2998) | GI50 (DMS-114) | GI50 (HOP-62) |
| --- | --- | --- | --- | --- | --- | --- | --- | --- | --- | --- | --- | --- | --- | --- | --- | --- | --- | --- |
| COC(=O)C1(c2ccc(OC)cc2)NC(c2ccccc2)C2C(=O)N(c3ccc(OC)cc3)C(=O)C21 (stereo unspecified) | > 100 µM (inactive) | > 100 µM (inactive) | > 100 µM (inactive) | > 100 µM (inactive) | > 100 µM (inactive) | > 100 µM (inactive) | > 100 µM (inactive) | > 100 µM (inactive) | > 100 µM (inactive) | > 100 µM (inactive) | > 100 µM (inactive) | > 100 µM (inactive) | > 100 µM (inactive) | > 100 µM (inactive) | > 100 µM (inactive) | > 100 µM (inactive) | > 100 µM (inactive) |  |
| C/C(=N/Nc1ccc([N+](=O)[O-])cc1[N+](=O)[O-])C(CC(C(=O)NCc1ccccc1)/C(C)=N\Nc1ccc([N+](=O)[O-])cc1[N+](=O)[O-])C(=O)NCc1ccccc1 (stereo unspecified) | 7.03 µM (inactive) | 3.24 µM (inactive) | 14.8 µM (inactive) | 12.7 µM (inactive) | 2.39 µM (inactive) |  | 15.2 µM (inactive) | 5.89 µM (inactive) | 8.02 µM (inactive) | 11.7 µM (inactive) | < 0.01 µM (active) | 2.4 µM (inactive) | 4.24 µM (inactive) | 13.5 µM (inactive) | 5.46 µM (inactive) | 13.2 µM (inactive) | 9.91 µM (inactive) | 3.88 µM (inactive) |
| CC(C)NC(=O)OCc1c2c(n(C)c1COC(=O)NC(C)C)-c1ccccc1CC2 | 9.14 µM (inactive) |  | 23.4 µM (inactive) | 14.9 µM (inactive) | 14.8 µM (inactive) | 14.4 µM (inactive) | 14.6 µM (inactive) | 15.9 µM (inactive) | 13.9 µM (inactive) | 12.7 µM (inactive) | 5.32 µM (inactive) | 15 µM (inactive) | 12.5 µM (inactive) | 8.05 µM (inactive) |  | 13.1 µM (inactive) | 5.43 µM (inactive) | 13 µM (inactive) |
| c1ccc2c(c1)[nH]c1c2ncc2[nH]c3ccccc3c21 | 3.73 µM (inactive) | 2.32 µM (inactive) | 2.72 µM (inactive) | 12.9 µM (inactive) | 4.05 µM (inactive) | 5.48 µM (inactive) | 2.94 µM (inactive) | 3.58 µM (inactive) | 2.45 µM (inactive) | 1.76 µM (inactive) | 4.74 µM (inactive) | 1.9 µM (inactive) |  | 2.45 µM (inactive) | 4.24 µM (inactive) | 2.64 µM (inactive) | 2.44 µM (inactive) | 4.31 µM (inactive) |
| N#C/N=C(/N)NCc1ccccc1 |  | > 100 µM (inactive) | > 100 µM (inactive) |  | > 100 µM (inactive) | > 100 µM (inactive) |  | > 100 µM (inactive) | > 100 µM (inactive) |  | > 100 µM (inactive) | > 100 µM (inactive) |  | > 100 µM (inactive) | > 100 µM (inactive) | 23.4 µM (inactive) | > 100 µM (inactive) | > 100 µM (inactive) |
| C/C(CC(=O)Nc1cccc([N+](=O)[O-])c1)=N\NC(=O)CC#N |  | > 100 µM (inactive) |  | > 100 µM (inactive) | > 100 µM (inactive) | > 100 µM (inactive) |  | > 100 µM (inactive) | > 100 µM (inactive) | > 100 µM (inactive) | 99.1 µM (inactive) |  | > 100 µM (inactive) | > 100 µM (inactive) |  | > 100 µM (inactive) | > 100 µM (inactive) | > 100 µM (inactive) |
| C/C(=N\O)C(CN(C)C)C(c1ccccc1)c1c(O)c2ccccc2oc1=O (stereo unspecified) | > 100 µM (inactive) | > 100 µM (inactive) | > 100 µM (inactive) | > 100 µM (inactive) | > 100 µM (inactive) | > 100 µM (inactive) | > 100 µM (inactive) | > 100 µM (inactive) | > 100 µM (inactive) | > 100 µM (inactive) | > 100 µM (inactive) | > 100 µM (inactive) | > 100 µM (inactive) | > 100 µM (inactive) |  | > 100 µM (inactive) | > 100 µM (inactive) | > 100 µM (inactive) |
| COc1cccc(/C=C2\C(=O)N(C(=O)c3ccc(NC(C)=O)cc3)N=C2C)c1 | > 100 µM (inactive) | > 100 µM (inactive) |  | > 100 µM (inactive) | > 100 µM (inactive) | 56.1 µM (inactive) | > 100 µM (inactive) | > 100 µM (inactive) | > 100 µM (inactive) |  | > 100 µM (inactive) | > 100 µM (inactive) |  | > 100 µM (inactive) | > 100 µM (inactive) | > 100 µM (inactive) | > 100 µM (inactive) | > 100 µM (inactive) |
| CN(c1ccccc1)c1nc(=[N+]2CCCC2)ss1.[O-][Cl+3]([O-])([O-])[O-] | > 100 µM (inactive) | 6.5 µM (inactive) | > 100 µM (inactive) | > 100 µM (inactive) | > 100 µM (inactive) | > 100 µM (inactive) | > 100 µM (inactive) |  | 6.56 µM (inactive) | > 100 µM (inactive) | 1.7 µM (inactive) | > 100 µM (inactive) | 3.03 µM (inactive) | 11.1 µM (inactive) | > 100 µM (inactive) | > 100 µM (inactive) | 7.66 µM (inactive) |  |
